# Earlier results as cited in patent publication US20250367333A1, “LIPID NANOPARTICLE FOR RADIATION THERAPY, MANUFACTURING METHOD, COMBINATION COMPOSITION, AND KIT” (KABUSHIKI KAISHA TOSHIBA, priority 2024, published 2025).
# Conditions: radioactive material
structure (smiles),measurement,value
[At] [astatine],half-life,approximately 7 hours
